{"source": "paper PMC10746543", "about": "“Design principles for cyclin K molecular glue degraders” (Nature Chemical Biology, 2023)", "key": {"CDK12–cyclin K and DDB1": {"target": "T1, CDK12–cyclin K and DDB1 (Homo sapiens, UniProt Q16531+Q9NYV4, K965R)", "T1 construct": "His6–CDK12 (a.a. 713–1,052); full-length or beta-propeller B domain deletion (ΔBPB: a.a. 396–705 deleted) constructs of His6–DDB1ΔBPB, StrepII–Avi–DDB1, or His6–Spy–DDB1; made in house; host or cells: Trichoplusia ni High Five insect cells (baculovirus)", "T1 sequence (Q9NYV4 713-1052 K965R)": "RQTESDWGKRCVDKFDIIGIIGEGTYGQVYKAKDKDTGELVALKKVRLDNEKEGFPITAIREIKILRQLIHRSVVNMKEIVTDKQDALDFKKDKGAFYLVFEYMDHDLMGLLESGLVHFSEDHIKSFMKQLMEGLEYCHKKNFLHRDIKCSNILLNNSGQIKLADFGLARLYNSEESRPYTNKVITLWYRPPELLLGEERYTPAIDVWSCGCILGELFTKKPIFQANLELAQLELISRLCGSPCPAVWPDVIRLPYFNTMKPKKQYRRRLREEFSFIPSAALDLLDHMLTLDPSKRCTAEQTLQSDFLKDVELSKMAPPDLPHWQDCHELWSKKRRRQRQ", "T1 sequence (O75909 1-267 partner)": "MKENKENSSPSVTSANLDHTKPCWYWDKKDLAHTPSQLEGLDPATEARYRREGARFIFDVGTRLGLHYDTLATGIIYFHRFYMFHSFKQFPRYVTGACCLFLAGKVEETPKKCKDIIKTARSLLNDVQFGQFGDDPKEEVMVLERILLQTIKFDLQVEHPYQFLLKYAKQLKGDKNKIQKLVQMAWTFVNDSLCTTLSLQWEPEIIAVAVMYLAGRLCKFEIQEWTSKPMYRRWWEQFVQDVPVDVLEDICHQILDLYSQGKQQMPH", "T1 sequence (Q16531 whole entry)": "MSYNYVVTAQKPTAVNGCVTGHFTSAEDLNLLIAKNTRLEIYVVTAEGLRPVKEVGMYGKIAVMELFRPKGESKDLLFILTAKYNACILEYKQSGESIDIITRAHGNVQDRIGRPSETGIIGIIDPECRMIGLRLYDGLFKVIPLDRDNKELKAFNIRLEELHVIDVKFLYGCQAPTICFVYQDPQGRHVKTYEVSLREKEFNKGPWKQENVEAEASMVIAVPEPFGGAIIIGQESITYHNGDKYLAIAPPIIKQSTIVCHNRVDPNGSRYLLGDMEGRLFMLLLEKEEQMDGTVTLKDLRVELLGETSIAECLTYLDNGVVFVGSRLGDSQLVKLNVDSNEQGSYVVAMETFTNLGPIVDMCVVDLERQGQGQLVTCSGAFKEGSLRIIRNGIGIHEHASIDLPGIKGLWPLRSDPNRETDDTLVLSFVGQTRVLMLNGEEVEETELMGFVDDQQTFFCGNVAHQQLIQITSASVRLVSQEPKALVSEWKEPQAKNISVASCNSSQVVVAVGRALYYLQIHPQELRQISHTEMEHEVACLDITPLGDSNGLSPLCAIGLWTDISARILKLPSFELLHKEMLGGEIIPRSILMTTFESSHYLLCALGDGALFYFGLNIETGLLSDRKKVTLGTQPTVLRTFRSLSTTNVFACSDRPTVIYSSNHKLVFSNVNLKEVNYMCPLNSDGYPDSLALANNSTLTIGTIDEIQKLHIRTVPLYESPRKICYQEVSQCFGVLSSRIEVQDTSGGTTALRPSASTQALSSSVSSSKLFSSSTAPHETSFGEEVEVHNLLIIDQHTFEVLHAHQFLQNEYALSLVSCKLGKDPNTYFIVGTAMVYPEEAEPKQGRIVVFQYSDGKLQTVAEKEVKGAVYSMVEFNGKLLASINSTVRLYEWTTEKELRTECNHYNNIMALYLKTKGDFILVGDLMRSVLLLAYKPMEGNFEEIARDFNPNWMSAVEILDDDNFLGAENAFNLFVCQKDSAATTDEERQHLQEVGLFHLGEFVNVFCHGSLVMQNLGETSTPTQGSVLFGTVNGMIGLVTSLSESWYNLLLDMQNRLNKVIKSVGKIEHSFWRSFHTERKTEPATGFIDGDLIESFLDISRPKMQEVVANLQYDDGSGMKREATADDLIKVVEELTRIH", "assay": "TR-FRET ternary complex formation assay (compound titration)", "assay_type": "binding", "conditions": "for TR-FRET signal at compound concentration: replicate titrations", "summary_of_the_method": "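TR-FRET ratio 520/490 nm; 70 μs delay before read to suppress background.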"}, "CDK9–cyclin T": {"target": "T2, CDK9–cyclin T (Homo sapiens, UniProt P50750)", "T2 construct": "purchased Thermo Fisher", "T2 sequence (P50750 whole entry)": "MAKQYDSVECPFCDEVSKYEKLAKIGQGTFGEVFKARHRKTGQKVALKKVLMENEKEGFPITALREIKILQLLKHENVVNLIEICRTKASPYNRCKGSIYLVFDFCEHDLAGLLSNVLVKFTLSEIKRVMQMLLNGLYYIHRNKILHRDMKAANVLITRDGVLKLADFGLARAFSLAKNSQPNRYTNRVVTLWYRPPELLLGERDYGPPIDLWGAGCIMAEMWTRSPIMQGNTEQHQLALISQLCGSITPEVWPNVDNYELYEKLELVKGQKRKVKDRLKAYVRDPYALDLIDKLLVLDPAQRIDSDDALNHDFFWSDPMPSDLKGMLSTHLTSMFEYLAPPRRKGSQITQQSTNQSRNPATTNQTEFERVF", "T2 sequence (O60563 whole entry partner)": "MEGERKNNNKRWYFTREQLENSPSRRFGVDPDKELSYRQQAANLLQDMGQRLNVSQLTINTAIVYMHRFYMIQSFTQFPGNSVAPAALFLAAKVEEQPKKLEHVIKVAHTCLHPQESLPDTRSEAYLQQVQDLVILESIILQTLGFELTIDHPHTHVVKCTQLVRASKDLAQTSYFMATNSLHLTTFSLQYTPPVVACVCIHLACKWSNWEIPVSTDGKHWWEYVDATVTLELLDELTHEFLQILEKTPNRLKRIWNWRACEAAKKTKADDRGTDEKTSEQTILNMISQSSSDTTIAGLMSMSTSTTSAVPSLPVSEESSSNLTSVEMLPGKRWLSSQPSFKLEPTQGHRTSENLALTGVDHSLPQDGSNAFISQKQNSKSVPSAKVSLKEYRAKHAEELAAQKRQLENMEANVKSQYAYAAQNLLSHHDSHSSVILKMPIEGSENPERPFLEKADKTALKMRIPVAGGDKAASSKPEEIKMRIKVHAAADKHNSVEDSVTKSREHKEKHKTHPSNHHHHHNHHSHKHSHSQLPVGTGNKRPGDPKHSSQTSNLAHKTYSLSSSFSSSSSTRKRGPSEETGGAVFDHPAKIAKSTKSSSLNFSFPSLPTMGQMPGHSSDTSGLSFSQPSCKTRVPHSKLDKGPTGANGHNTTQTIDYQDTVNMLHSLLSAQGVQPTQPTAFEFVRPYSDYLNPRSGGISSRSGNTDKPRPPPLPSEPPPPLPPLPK", "assay": "Lanthascreen kinase binding assay, CDK9", "conditions": "Supplementary Table 2; read-out: Lanthascreen IC50 [nM] CDK9", "procedure": "Lanthascreen experiments were performed using commercially available reagents (Thermo Fisher) and according to the manufacturer’s instructions."}, "[1]": {"conditions": "compound concentration 7.92001 nM"}, "[2]": {"conditions": "compound concentration 15.84 nM"}, "[3]": {"conditions": "compound concentration 30.96 nM"}, "[4]": {"conditions": "compound concentration 62.6401 nM"}, "[5]": {"conditions": "compound concentration 125.28 nM"}, "[6]": {"conditions": "compound concentration 244.8 nM"}, "[7]": {"conditions": "compound concentration 993.601 nM"}, "[8]": {"conditions": "compound concentration 2001.6 nM"}}, "note": "Values joined by “and” are separate entries in the source; they are usually repeats but may differ in a detail not shown here. Equal values may be shown once.", "data": [{"smiles": "CCC(CO)Nc1nc(NCc2ccc(-c3ccccn3)cc2)c2ncn(C(C)C)c2n1", "note": "(stereo not drawn) [CR8, reference compound]", "values": [{"measurement": "TR-FRET signal, individual replicate", "setting": "CDK12–cyclin K and DDB1; [1]", "result": "1.345 and 0.9894 and 0.9813 and 0.8825 and 0.9549 and 0.8747 and 0.8749 and 0.9605"}, {"measurement": "TR-FRET signal at compound concentration 7.92001 nM", "setting": "CDK12–cyclin K and DDB1; compound concentration 7.92001 nM, raw replicate titration data", "result": "1.345 and 0.9894 and 0.9813 and 0.8825 and 0.9549 and 0.8747 and 0.8749 and 0.9605 and 0.982 and 0.9498 and 0.9487 and 0.89 and 1.021 and 1.066 and 1.149 and 1.341 and 1.311 and 1.1731"}, {"measurement": "TR-FRET signal at compound concentration 7.92001 nM", "setting": "CDK12–cyclin K and DDB1; compound concentration 7.92001 nM, raw titration data", "result": "1.345 and 0.9894 and 0.9813 and 0.8825 and 0.9549 and 0.8747 and 0.8749 and 0.9605 and 0.982 and 0.9498 and 0.9487 and 0.89 and 1.021 and 1.066 and 1.149 and 1.341 and 1.311 and 1.1731"}, {"measurement": "TR-FRET signal at compound concentration", "setting": "CDK12–cyclin K and DDB1; [1]", "result": "1.345 and 0.9894 and 0.9813 and 0.8825 and 0.9549 and 0.8747 and 0.8749 and 0.9605"}, {"measurement": "TR-FRET signal, individual replicate", "setting": "CDK12–cyclin K and DDB1; [2]", "result": "2.359 and 1.808 and 1.67 and 1.71 and 1.978 and 1.839 and 1.833 and 1.762"}, {"measurement": "TR-FRET signal at compound concentration 15.84 nM", "setting": "CDK12–cyclin K and DDB1; compound concentration 15.84 nM, raw replicate titration data", "result": "2.359 and 1.808 and 1.67 and 1.71 and 1.978 and 1.839 and 1.833 and 1.762 and 1.792 and 1.805 and 1.852 and 1.758 and 1.925 and 1.999 and 2.166 and 2.456 and 2.406 and 2.268"}, {"measurement": "TR-FRET signal at compound concentration 15.84 nM", "setting": "CDK12–cyclin K and DDB1; compound concentration 15.84 nM, raw titration data", "result": "2.359 and 1.808 and 1.67 and 1.71 and 1.978 and 1.839 and 1.833 and 1.762 and 1.792 and 1.805 and 1.852 and 1.758 and 1.925 and 1.999 and 2.166 and 2.456 and 2.406 and 2.268"}, {"measurement": "TR-FRET signal at compound concentration", "setting": "CDK12–cyclin K and DDB1; [2]", "result": "2.359 and 1.808 and 1.67 and 1.71 and 1.978 and 1.839 and 1.833 and 1.762"}, {"measurement": "TR-FRET signal, individual replicate", "setting": "CDK12–cyclin K and DDB1; [3]", "result": "3.429 and 2.93 and 2.851 and 3.1006 and 3.279 and 3.156 and 3.142 and 2.862"}, {"measurement": "TR-FRET signal at compound concentration 30.96 nM", "setting": "CDK12–cyclin K and DDB1; compound concentration 30.96 nM, raw replicate titration data", "result": "3.429 and 2.93 and 2.851 and 3.1006 and 3.279 and 3.156 and 3.142 and 2.862 and 2.958 and 2.99 and 2.943 and 2.896 and 3.197 and 3.095 and 3.319 and 3.517 and 3.418 and 3.349"}, {"measurement": "TR-FRET signal at compound concentration 30.96 nM", "setting": "CDK12–cyclin K and DDB1; compound concentration 30.96 nM, raw titration data", "result": "3.429 and 2.93 and 2.851 and 3.1006 and 3.279 and 3.156 and 3.142 and 2.862 and 2.958 and 2.99 and 2.943 and 2.896 and 3.197 and 3.095 and 3.319 and 3.517 and 3.418 and 3.349"}, {"measurement": "TR-FRET signal at compound concentration", "setting": "CDK12–cyclin K and DDB1; [3]", "result": "3.429 and 2.93 and 2.851 and 3.1006 and 3.279 and 3.156 and 3.142 and 2.862"}, {"measurement": "TR-FRET signal, individual replicate", "setting": "CDK12–cyclin K and DDB1; [4]", "result": "3.992 and 3.667 and 3.67 (2×) and 3.796 and 3.836 and 3.683 and 3.652"}, {"measurement": "TR-FRET signal at compound concentration 62.6401 nM", "setting": "CDK12–cyclin K and DDB1; compound concentration 62.6401 nM, raw replicate titration data", "result": "3.992 and 3.667 and 3.67 (2×) and 3.796 and 3.836 and 3.683 and 3.652 and 3.6831 and 3.54 and 3.542 and 3.62 and 3.792 and 3.69 and 3.855 and 3.914 and 3.849 and 3.7896"}, {"measurement": "TR-FRET signal at compound concentration 62.6401 nM", "setting": "CDK12–cyclin K and DDB1; compound concentration 62.6401 nM, raw titration data", "result": "3.992 and 3.667 and 3.67 (2×) and 3.796 and 3.836 and 3.683 and 3.652 and 3.6831 and 3.54 and 3.542 and 3.62 and 3.792 and 3.69 and 3.855 and 3.914 and 3.849 and 3.7896"}, {"measurement": "TR-FRET signal at compound concentration", "setting": "CDK12–cyclin K and DDB1; [4]", "result": "3.992 and 3.667 and 3.67 (2×) and 3.796 and 3.836 and 3.683 and 3.652"}, {"measurement": "TR-FRET signal, individual replicate", "setting": "CDK12–cyclin K and DDB1; [5]", "result": "4.095 and 3.873 and 3.877 and 4.034 and 3.962 and 3.842 and 3.836 and 3.935"}, {"measurement": "TR-FRET signal at compound concentration 125.28 nM", "setting": "CDK12–cyclin K and DDB1; compound concentration 125.28 nM, raw replicate titration data", "result": "4.095 and 3.873 and 3.877 and 4.034 and 3.962 and 3.842 and 3.836 and 3.935 and 3.986 and 3.722 and 3.719 and 3.7404 and 3.636 and 3.869 and 4.026 and 4.013 and 4.003 and 3.8874"}, {"measurement": "TR-FRET signal at compound concentration 125.28 nM", "setting": "CDK12–cyclin K and DDB1; compound concentration 125.28 nM, raw titration data", "result": "4.095 and 3.873 and 3.877 and 4.034 and 3.962 and 3.842 and 3.836 and 3.935 and 3.986 and 3.722 and 3.719 and 3.7404 and 3.636 and 3.869 and 4.026 and 4.013 and 4.003 and 3.8874"}, {"measurement": "TR-FRET signal at compound concentration", "setting": "CDK12–cyclin K and DDB1; [5]", "result": "4.095 and 3.873 and 3.877 and 4.034 and 3.962 and 3.842 and 3.836 and 3.935"}, {"measurement": "TR-FRET signal, individual replicate", "setting": "CDK12–cyclin K and DDB1; [6]", "result": "4.223 and 4.06 and 4.046 and 4.132 and 4.096 and 3.922 and 3.897 and 4.118"}, {"measurement": "TR-FRET signal at compound concentration 244.8 nM", "setting": "CDK12–cyclin K and DDB1; compound concentration 244.8 nM, raw replicate titration data", "result": "4.223 and 4.06 and 4.046 and 4.132 and 4.096 and 3.922 and 3.897 and 4.118 and 4.095 and 3.806 and 3.805 and 3.852 and 3.955 and 3.967 and 4.129 and 4.013 and 4.0726 and 3.918"}, {"measurement": "TR-FRET signal at compound concentration 244.8 nM", "setting": "CDK12–cyclin K and DDB1; compound concentration 244.8 nM, raw titration data", "result": "4.223 and 4.06 and 4.046 and 4.132 and 4.096 and 3.922 and 3.897 and 4.118 and 4.095 and 3.806 and 3.805 and 3.852 and 3.955 and 3.967 and 4.129 and 4.013 and 4.0726 and 3.918"}, {"measurement": "TR-FRET signal at compound concentration", "setting": "CDK12–cyclin K and DDB1; [6]", "result": "4.223 and 4.06 and 4.046 and 4.132 and 4.096 and 3.922 and 3.897 and 4.118"}, {"measurement": "TR-FRET signal, individual replicate", "setting": "CDK12–cyclin K and DDB1; [7]", "result": "4.301 and 4.232 and 4.095 and 4.244 and 4.268 and 3.98 and 3.937 and 4.179"}, {"measurement": "TR-FRET signal at compound concentration 993.601 nM", "setting": "CDK12–cyclin K and DDB1; compound concentration 993.601 nM, raw replicate titration data", "result": "4.301 and 4.232 and 4.095 and 4.244 and 4.268 and 3.98 and 3.937 and 4.179 and 4.188 and 3.896 and 3.831 and 3.928 and 4.083 and 4.021 and 4.231 and 4.144 and 3.981"}, {"measurement": "TR-FRET signal at compound concentration 993.601 nM", "setting": "CDK12–cyclin K and DDB1; compound concentration 993.601 nM, raw titration data", "result": "4.301 and 4.232 and 4.095 and 4.244 and 4.268 and 3.98 and 3.937 and 4.179 and 4.188 and 3.896 and 3.831 and 3.928 and 4.083 and 4.021 and 4.231 and 4.144 and 3.981"}, {"measurement": "TR-FRET signal at compound concentration", "setting": "CDK12–cyclin K and DDB1; [7]", "result": "4.301 and 4.232 and 4.095 and 4.244 and 4.268 and 3.98 and 3.937 and 4.179"}, {"measurement": "TR-FRET signal, individual replicate", "setting": "CDK12–cyclin K and DDB1; [8]", "result": "4.322 and 4.194 and 4.162 and 4.144 and 4.309 and 4.034 and 4.299"}, {"measurement": "TR-FRET signal at compound concentration 2001.6 nM", "setting": "CDK12–cyclin K and DDB1; compound concentration 2001.6 nM, raw replicate titration data", "result": "4.322 and 4.194 and 4.162 and 4.144 and 4.309 and 4.034 and 4.299 and 4.197 and 3.982 and 3.892 and 3.93 and 4.094 and 4.059 and 4.292 and 4.196 and 4.177 and 4.087"}, {"measurement": "TR-FRET signal at compound concentration 2001.6 nM", "setting": "CDK12–cyclin K and DDB1; compound concentration 2001.6 nM, raw titration data", "result": "4.322 and 4.194 and 4.162 and 4.144 and 4.309 and 4.034 and 4.299 and 4.197 and 3.982 and 3.892 and 3.93 and 4.094 and 4.059 and 4.292 and 4.196 and 4.177 and 4.087"}, {"measurement": "TR-FRET signal at compound concentration", "setting": "CDK12–cyclin K and DDB1; [8]", "result": "4.322 and 4.194 and 4.162 and 4.144 and 4.309 and 4.034 and 4.299"}, {"measurement": "IC50", "setting": "CDK9–cyclin T", "result": 44, "unit": "nM"}]}]}
